Data reported in patent publication US6737383B1, “Herbicidal oxadiazolidines” (priority 1999, dated 2004).

Tests used:
pigweed = assay: Test B pre/postemergence pigweed; assay type: in vivo, Amaranthus retroflexus
In short: (§1)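 Test chemicals in a non-phytotoxic solvent mixture with surfactant were sprayed preemergence onto planted seeds and postemergence onto plants 2 to 18 cm tall (1- to 4-leaf stage). After twelve to sixteen days in a greenhouse, injury was visually rated against untreated controls from 0 (no effect) to 10 (complete control).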

wild oat = assay: Test B pre/postemergence wild oat; assay type: in vivo, Avena fatua
In short: as §1

corn = assay: Test B pre/postemergence corn; assay type: in vivo, Zea mays
In short: as §1

cocklebur = assay: Test B pre/postemergence cocklebur; assay type: in vivo, Xanthium strumarium
In short: as §1

morningglory = assay: Test B pre/postemergence morningglory; assay type: in vivo, Ipomoea hederacea
In short: as §1

wheat = assay: Test B pre/postemergence wheat; assay type: in vivo, Triticum aestivum
In short: as §1

giant foxtail = assay: Test B pre/postemergence giant foxtail; assay type: in vivo, Setaria faberii
In short: as §1

bedstraw = assay: Test B pre/postemergence bedstraw; assay type: in vivo, Galium aparine
In short: as §1

rice = assay: Test B flood test rice; assay type: in vivo, Oryza sativa
In short: (§2)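 Plants were grown to the 2-leaf stage before treatment with test chemical, then held in a greenhouse for twelve to sixteen days. Injury was visually rated against untreated controls on a 0–10 scale, where 0 is no effect and 10 is complete control.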

smallflower flatsedge = assay: Test B flood test smallflower flatsedge; assay type: in vivo, Cyperus difformis
In short: as §2

duck salad = assay: Test B flood test duck salad; assay type: in vivo, Heteranthera limosa
In short: as §2

purple nutsedge = assay: Test B pre/postemergence purple nutsedge; assay type: in vivo, Cyperus rotundus
In short: as §1

soybean = assay: Test B pre/postemergence soybean; assay type: in vivo, Glycine max
In short: as §1

velvetleaf = assay: Test B pre/postemergence velvetleaf; assay type: in vivo, Abutilon theophrasti
In short: as §1

crabgrass = assay: Test B pre/postemergence crabgrass; assay type: in vivo, Digitaria sanguinalis
In short: as §1

rape = assay: Test B pre/postemergence rape; assay type: in vivo, Brassica napus
In short: as §1

[1] = Postemergence, Rate 62 g/ha, scale 0 to 10, 0 is no effect, 10 is complete control
[2] = Postemergence, Rate 250 g/ha, scale 0 to 10, 0 no effect, 10 complete control
[3] = Preemergence, Rate 62 g/ha, scale 0 to 10 (0 no effect, 10 complete control)
[4] = Preemergence, Rate 125 g/ha, scale 0 to 10 (0 no effect, 10 complete control)
[5] = Preemergence, Rate 250 g/ha, scale of 0 to 10 where 0 is no effect and 10 is complete control
[6] = Preemergence, Rate 500 g/ha, scale 0 (no effect) to 10 (complete control)
[7] = Rate 125 g/ha, Postemergence, scale 0 to 10, 0 no effect, 10 complete control
[8] = Rate 500 g/ha, Postemergence, scale 0 to 10, 0 no effect, 10 complete control
[9] = Rate 125 g/ha, Postemergence section (flood test species), scale 0 to 10, 0 no effect, 10 complete control
[10] = Rate 500 g/ha, listed under Postemergence (flood test species), scale 0 to 10, 0 no effect, 10 complete control
[11] = flood test, listed under Postemergence, Rate 250 g/ha, scale 0 to 10, 0 no effect, 10 complete control

COc1cccc(C)c1-n1c(=O)on(C(=O)N(c2ccccc2)C(C)C)c1=O [Compound 73]
Redroot pigweed plant response rating (pigweed; [1]): 0 | Redroot pigweed plant response rating (pigweed; [2]): 0 | Redroot pigweed plant response rating (pigweed; [3]): 0 | Plant response rating, Redroot pigweed (pigweed; [4]): 0 | Plant response rating, Redroot pigweed (pigweed; [5]): 0 | Redroot pigweed plant response rating (pigweed; [6]): 0 | Redroot pigweed plant response rating (pigweed; [7]): 0 | Redroot pigweed plant response rating (pigweed; [8]): 0 | Wild oats plant response rating (wild oat; [1]): 0 | Wild oats plant response rating (wild oat; [2]): 2 | Wild oats plant response rating (wild oat; [3]): 0 | Plant response rating, Wild oats (wild oat; [4]): 0 | Plant response rating, Wild oats (wild oat; [5]): 0 | Wild oats plant response rating (wild oat; [6]): 0 | Wild oats plant response rating (wild oat; [7]): 0 | Wild oats plant response rating (wild oat; [8]): 6 | Corn plant response rating (corn; [1]): 0 | Corn plant response rating (corn; [2]): 0 | Corn plant response rating (corn; [3]): 0 | Plant response rating, Corn (corn; [4]): 0 | Plant response rating, Corn (corn; [5]): 0 | Corn plant response rating (corn; [6]): 0 | Corn plant response rating (corn; [7]): 0 | Corn plant response rating (corn; [8]): 0 | Cocklebur plant response rating (cocklebur; [1]): 0 | Cocklebur plant response rating (cocklebur; [2]): 0 | Cocklebur plant response rating (cocklebur; [3]): 0 | Plant response rating, Cocklebur (cocklebur; [4]): 0 | Plant response rating, Cocklebur (cocklebur; [5]): 0 | Cocklebur plant response rating (cocklebur; [6]): 0 | Cocklebur plant response rating (cocklebur; [7]): 0 | Cocklebur plant response rating (cocklebur; [8]): 2 | Morningglory plant response rating (morningglory; [1]): 3 | Morningglory plant response rating (morningglory; [2]): 4 | Morningglory plant response rating (morningglory; [3]): 0 | Plant response rating, Morningglory (morningglory; [4]): 0 | Plant response rating, Morningglory (morningglory; [5]): 0 | Morningglory plant response rating (morningglory; [6]): 0 | Morningglory plant response rating (morningglory; [7]): 3 | Morningglory plant response rating (morningglory; [8]): 4 | Wheat plant response rating (wheat; [1]): 0 | Wheat plant response rating (wheat; [2]): 0 | Wheat plant response rating (wheat; [3]): 0 | Plant response rating, Wheat (wheat; [4]): 0 | Plant response rating, Wheat (wheat; [5]): 0 | Wheat plant response rating (wheat; [6]): 0 | Wheat plant response rating (wheat; [7]): 0 | Wheat plant response rating (wheat; [8]): 2 | Giant foxtail plant response rating (giant foxtail; [1]): 0 | Giant foxtail plant response rating (giant foxtail; [2]): 2 | Giant foxtail plant response rating (giant foxtail; [3]): 2 | Plant response rating, Giant foxtail (giant foxtail; [4]): 7 | Plant response rating, Giant foxtail (giant foxtail; [5]): 9 | Giant foxtail plant response rating (giant foxtail; [6]): 10 | Giant foxtail plant response rating (giant foxtail; [7]): 0 | Giant foxtail plant response rating (giant foxtail; [8]): 4 | Bedstraw plant response rating (bedstraw; [1]): 0 | Bedstraw plant response rating (bedstraw; [2]): 7 | Bedstraw plant response rating (bedstraw; [3]): 0 | Plant response rating, Bedstraw (bedstraw; [4]): 0 | Plant response rating, Bedstraw (bedstraw; [5]): 0 | Bedstraw plant response rating (bedstraw; [6]): 0 | Bedstraw plant response rating (bedstraw; [7]): 0 | Bedstraw plant response rating (bedstraw; [8]): 7 | Rice plant response rating (rice; [1]): 0 | Rice plant response rating (rice; [9]): 0 | Rice plant response rating (rice; [10]): 0 | Rice plant response rating (rice; [11]): 0 | S. Flatsedge plant response rating (smallflower flatsedge; [1]): 0 | S. Flatsedge plant response rating (smallflower flatsedge; [9]): 0 | S. Flatsedge plant response rating (smallflower flatsedge; [10]): 0 | S. Flatsedge plant response rating (smallflower flatsedge; [11]): 0 | Ducksalad plant response rating (duck salad; [1]): 0 | Ducksalad plant response rating (duck salad; [9]): 0 | Ducksalad plant response rating (duck salad; [10]): 0 | Ducksalad plant response rating (duck salad; [11]): 0 | Nutsedge plant response rating (purple nutsedge; [1]): 0 | Nutsedge plant response rating (purple nutsedge; [2]): 0 | Nutsedge plant response rating (purple nutsedge; [3]): 0 | Plant response rating, Nutsedge (purple nutsedge; [4]): 0 | Plant response rating, Nutsedge (purple nutsedge; [5]): 0 | Nutsedge plant response rating (purple nutsedge; [6]): 0 | Nutsedge plant response rating (purple nutsedge; [7]): 0 | Nutsedge plant response rating (purple nutsedge; [8]): 0 | Soybean plant response rating (soybean; [1]): 0 | Soybean plant response rating (soybean; [2]): 3 | Soybean plant response rating (soybean; [3]): 0 | Plant response rating, Soybean (soybean; [4]): 0 | Plant response rating, Soybean (soybean; [5]): 0 | Soybean plant response rating (soybean; [6]): 0 | Soybean plant response rating (soybean; [7]): 0 | Soybean plant response rating (soybean; [8]): 3 | Velvetleaf plant response rating (velvetleaf; [1]): 0 | Velvetleaf plant response rating (velvetleaf; [2]): 4 | Velvetleaf plant response rating (velvetleaf; [3]): 0 | Plant response rating, Velvetleaf (velvetleaf; [4]): 0 | Plant response rating, Velvetleaf (velvetleaf; [5]): 0 | Velvetleaf plant response rating (velvetleaf; [6]): 0 | Velvetleaf plant response rating (velvetleaf; [7]): 3 | Velvetleaf plant response rating (velvetleaf; [8]): 5 | Crabgrass plant response rating (crabgrass; [1]): 0 | Crabgrass plant response rating (crabgrass; [2]): 2 | Crabgrass plant response rating (crabgrass; [3]): 1 | Plant response rating, Crabgrass (crabgrass; [4]): 5 | Plant response rating, Crabgrass (crabgrass; [5]): 8 | Crabgrass plant response rating (crabgrass; [6]): 9 | Crabgrass plant response rating (crabgrass; [7]): 0 | Crabgrass plant response rating (crabgrass; [8]): 6 | Rape plant response rating (rape; [1]): 0 | Rape plant response rating (rape; [2]): 0 | Rape plant response rating (rape; [3]): 0 | Plant response rating, Rape (rape; [4]): 0 | Plant response rating, Rape (rape; [5]): 0 | Rape plant response rating (rape; [6]): 0 | Rape plant response rating (rape; [7]): 0
